Data taken from ChEMBL document CHEMBL1201862, “PubChem BioAssay data set” (2004).
Calls of active or inactive are those of the source.

Legend:
[1] = HEp-2 cell cytotoxicity, dose response, cytotoxicity control for RSV inhibitor project, HTS (AID 2410); type: functional; conditions: human respiratory syncytial virus
[2] = LGR2 antagonists, dose response, cell-based, HEK293, CRE-luciferase reporter, cherry pick, set 2 (AID 743343); type: functional;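 note: transfected cells were stimulated with diluted bursicon conditioned medium after compound addition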
[3] = biological target: T1, RNA-binding protein pos-1 (Caenorhabditis elegans, UniProt G5EF15); experiment: inhibitors of POS-1/mex-3 RNA binding, dose response, biochemical, fluorescence polarization (AID 1964);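 note: purified POS-1 fused to maltose binding protein made in E. coli; potency of compounds blocking POS-1 binding to fluorescent RNA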
T1 sequence (G5EF15 whole entry): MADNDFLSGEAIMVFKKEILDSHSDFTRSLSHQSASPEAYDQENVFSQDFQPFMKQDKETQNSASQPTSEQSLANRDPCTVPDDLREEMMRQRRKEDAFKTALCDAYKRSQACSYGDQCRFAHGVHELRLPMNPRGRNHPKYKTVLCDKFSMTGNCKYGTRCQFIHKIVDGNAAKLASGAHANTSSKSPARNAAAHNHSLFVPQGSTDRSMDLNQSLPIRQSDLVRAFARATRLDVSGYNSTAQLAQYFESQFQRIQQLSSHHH

[4] = biological target: T2, Zinc finger protein mex-5 (Caenorhabditis elegans, UniProt Q9XUB2); experiment: MEX-5/TCR-2 RNA interaction inhibitors, dose response, biochemical, C. elegans, fluorescence polarization (AID 1960)
T2 sequence (Q9XUB2 whole entry): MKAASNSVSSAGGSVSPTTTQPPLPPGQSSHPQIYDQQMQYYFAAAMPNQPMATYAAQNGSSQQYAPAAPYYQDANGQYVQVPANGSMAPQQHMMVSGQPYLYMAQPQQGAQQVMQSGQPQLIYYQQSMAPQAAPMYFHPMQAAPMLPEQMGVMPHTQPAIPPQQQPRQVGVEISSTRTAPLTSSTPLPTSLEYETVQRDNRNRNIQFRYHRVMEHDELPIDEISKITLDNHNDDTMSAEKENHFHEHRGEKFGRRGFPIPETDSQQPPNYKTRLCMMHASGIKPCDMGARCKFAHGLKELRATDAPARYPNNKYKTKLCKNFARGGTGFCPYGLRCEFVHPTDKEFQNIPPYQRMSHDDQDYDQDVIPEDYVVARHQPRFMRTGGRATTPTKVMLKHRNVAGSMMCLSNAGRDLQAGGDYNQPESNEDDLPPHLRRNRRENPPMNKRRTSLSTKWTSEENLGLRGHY

Aminopeptidase N = biological target: T3, Aminopeptidase N (Plasmodium falciparum FcB1/Columbia, UniProt O96935); experiment: P. falciparum M1AAP inhibitors, biochemical, fluorogenic H-Leu-NHMec substrate, 1536-well (AID 1445); design: species or system Plasmodium falciparum 3D7, 3D7
T3 sequence (O96935 whole entry): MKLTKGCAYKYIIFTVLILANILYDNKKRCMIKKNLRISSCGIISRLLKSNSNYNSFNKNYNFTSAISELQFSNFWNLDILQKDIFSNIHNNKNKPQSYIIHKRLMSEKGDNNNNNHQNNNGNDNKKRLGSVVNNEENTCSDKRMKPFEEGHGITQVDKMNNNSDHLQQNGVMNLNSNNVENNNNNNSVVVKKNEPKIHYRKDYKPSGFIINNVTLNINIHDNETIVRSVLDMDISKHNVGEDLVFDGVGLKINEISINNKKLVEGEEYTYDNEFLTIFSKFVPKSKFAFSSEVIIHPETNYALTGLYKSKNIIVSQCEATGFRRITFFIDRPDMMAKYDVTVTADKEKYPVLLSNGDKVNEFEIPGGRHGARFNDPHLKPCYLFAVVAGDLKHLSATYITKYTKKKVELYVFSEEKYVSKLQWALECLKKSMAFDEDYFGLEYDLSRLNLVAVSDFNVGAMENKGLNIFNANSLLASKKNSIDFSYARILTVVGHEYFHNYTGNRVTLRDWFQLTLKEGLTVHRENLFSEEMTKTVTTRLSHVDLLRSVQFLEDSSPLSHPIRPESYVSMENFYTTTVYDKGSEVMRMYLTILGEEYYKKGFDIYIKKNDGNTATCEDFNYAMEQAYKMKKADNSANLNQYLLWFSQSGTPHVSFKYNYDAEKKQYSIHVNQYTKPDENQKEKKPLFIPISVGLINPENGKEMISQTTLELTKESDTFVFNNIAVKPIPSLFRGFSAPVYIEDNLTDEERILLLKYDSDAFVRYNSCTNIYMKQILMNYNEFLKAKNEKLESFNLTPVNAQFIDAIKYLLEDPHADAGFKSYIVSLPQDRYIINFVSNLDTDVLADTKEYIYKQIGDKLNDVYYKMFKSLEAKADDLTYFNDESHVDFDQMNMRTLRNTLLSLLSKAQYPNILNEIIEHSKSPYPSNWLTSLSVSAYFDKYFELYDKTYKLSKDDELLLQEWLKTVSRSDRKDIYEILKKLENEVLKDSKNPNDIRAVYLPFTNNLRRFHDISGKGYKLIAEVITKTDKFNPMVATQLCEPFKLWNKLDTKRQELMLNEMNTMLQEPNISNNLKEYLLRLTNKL

Genome polyprotein = Genome polyprotein (dengue virus type 2, UniProt P29990); experiment: Dengue-2 NS5 methyltransferase inhibitors, primary screen, biochemical, confirmation dose response (AID 588689); type: functional
[5] = P. falciparum 3D7-ScDHODH growth inhibitors, dose response, SYBR Green, dry powder samples (AID 1159570); type: functional, cell-based;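 note: parasite growth measured after 72 hours of compound exposure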
[6] = HepG2 cell cytotoxicity, dose response, cytotoxicity control, plate reader, dry powder samples (AID 1159569); type: functional, cell-based;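 note: inhibitor potency with signal falling toward the positive control level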
[7] = P. falciparum Dd2 growth inhibitors, dose response, SYBR Green, cherry-picked samples (AID 1159567); type: functional, cell-based
[8] = P. falciparum Dd2 growth inhibitors, dose response, SYBR Green, dry powder samples (AID 1159566); type: functional, cell-based;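 note: potency for growth inhibition with lower SYBR green DNA signal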
[9] = P. falciparum ATP4 D1247Y mutant growth inhibitors, dose response, NITD609-resistant line, SYBR Green, dry powder (AID 1159571); type: functional, cell-based;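 note: parasites synchronized at ring stage by sorbitol before testing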
[10] = miR-122 activators in hepatoma reporter cells, dose response, cell-based, Huh7 psiCHECK-miR122, Renilla luciferase, cherry-picked (AID 651956); type: functional;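 note: huh7 hepatoma cells stably carrying a psiCHECK-2 miR-122 sensor plasmid; renilla luciferase signal reporting endogenous miR-122 activity after 48 h compound exposure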
[11] = NIH-3T3 fibroblast cytotoxicity, dose response, cytotoxicity control, cell-based, fluorescence, Alamar Blue, secondary assay (AID 2327); type: functional;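 note: NIH-3T3 mouse fibroblasts cultured with fluconazole at 8 µg/mL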
Leucine aminopeptidase = biological target: T4, Leucine aminopeptidase (Plasmodium falciparum 3D7, UniProt Q8IL11); experiment: P. falciparum M17LAP inhibitors, primary screen, biochemical, fluorogenic H-Leu-NHMec substrate, 1536-well (AID 1619); type: functional
T4 sequence (Q8IL11 whole entry): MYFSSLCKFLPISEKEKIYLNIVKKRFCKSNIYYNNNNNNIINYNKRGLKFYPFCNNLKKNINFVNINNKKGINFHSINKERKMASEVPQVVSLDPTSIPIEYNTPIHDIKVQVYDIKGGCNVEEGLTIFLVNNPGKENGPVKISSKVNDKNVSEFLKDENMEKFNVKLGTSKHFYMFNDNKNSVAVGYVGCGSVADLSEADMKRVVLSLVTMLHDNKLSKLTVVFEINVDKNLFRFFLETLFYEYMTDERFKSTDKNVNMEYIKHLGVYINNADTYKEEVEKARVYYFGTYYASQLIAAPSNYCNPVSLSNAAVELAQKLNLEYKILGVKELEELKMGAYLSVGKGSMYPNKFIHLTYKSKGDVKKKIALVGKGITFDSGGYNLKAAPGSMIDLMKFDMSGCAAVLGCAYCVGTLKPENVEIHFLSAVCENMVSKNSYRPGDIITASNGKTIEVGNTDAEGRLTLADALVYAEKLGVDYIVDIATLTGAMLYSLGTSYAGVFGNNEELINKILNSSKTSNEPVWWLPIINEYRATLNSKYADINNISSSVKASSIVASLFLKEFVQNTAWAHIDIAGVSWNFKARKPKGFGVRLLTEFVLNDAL

[12] = C. albicans growth with fluconazole, confirmation, fluorescence, retest (AID 2467); type: functional, cell-based
[13] = inhibitors of intracellular T. cruzi replication, confirmation, NIH3T3 host cells, beta-gal luminescence (AID 2044); type: functional, cell-based;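 note: intracellular parasites grown in NIH/3T3 mouse fibroblasts as host cells; luminescent beta-galactosidase reporter signal from transgenic T. cruzi replicating inside host cells; inhibitors lower the luminescence signal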
[14] = cytotoxicity toward NIH3T3 fibroblasts, dose response, counter-screen, cell-based, ATP luminescence, mouse fibroblasts (AID 2010); type: functional;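 note: cells exposed to compound for about 90 hours before reading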
Cysteine protease ATG4B = biological target: T5, Cysteine protease ATG4B (Homo sapiens, UniProt Q9Y4P1); type: functional;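 note: Fluorescence-based dose-response confirmation assay measuring inhibition of ATG4B activity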
T5 sequence (Q9Y4P1 whole entry): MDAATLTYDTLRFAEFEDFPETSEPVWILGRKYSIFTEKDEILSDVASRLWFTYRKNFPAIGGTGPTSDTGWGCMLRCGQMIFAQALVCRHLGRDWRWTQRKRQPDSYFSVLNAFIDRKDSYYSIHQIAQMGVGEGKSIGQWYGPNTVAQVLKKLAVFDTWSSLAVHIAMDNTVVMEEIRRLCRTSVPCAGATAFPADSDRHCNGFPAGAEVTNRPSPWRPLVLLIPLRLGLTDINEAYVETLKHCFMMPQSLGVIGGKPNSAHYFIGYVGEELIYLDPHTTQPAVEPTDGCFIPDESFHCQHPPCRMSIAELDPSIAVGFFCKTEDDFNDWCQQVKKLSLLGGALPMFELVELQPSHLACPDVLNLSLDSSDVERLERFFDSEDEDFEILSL

Phospholipase A2 = Phospholipase A2 (Homo sapiens, UniProt P04054); type: functional;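 note: confirmatory dose-response counterscreen on phospholipase A2, testing hits that came from an ultra-high-throughput screen for ATG4B inhibitors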
[15] = Luminescence Cell-Based Dose Retest to Confirm Inhibitors of Cancer Stem Cells. [Related pubchem assays (depositor defined):AID2717, AID2721]; type: functional; conditions: Homo sapiens
INS1 = experiment: beta cell apoptosis inhibitors, cytokine rescue, dose response, luminescence, retest (AID 449756); type: functional, cell-based; conditions: Rattus norvegicus;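 note: cell death triggered by IL-1 beta plus TNF-alpha plus IFN-gamma mixture; protective hits raise ATP signal compared with cytokine alone wells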
Paired box protein Pax-8 = Paired box protein Pax-8 (Homo sapiens, UniProt Q06710); experiment: inhibitors of PAX8-driven TPO luciferase reporter, dose response, RMG-I cells, cherry-pick (AID 687027); type: functional, cell-based;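 note: luciferase reporter driven by Pax8 target thyroperoxidase promoter measured by SteadyGlo luminescence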
Chain of Paired box protein Pax-8 (Q06710 whole entry): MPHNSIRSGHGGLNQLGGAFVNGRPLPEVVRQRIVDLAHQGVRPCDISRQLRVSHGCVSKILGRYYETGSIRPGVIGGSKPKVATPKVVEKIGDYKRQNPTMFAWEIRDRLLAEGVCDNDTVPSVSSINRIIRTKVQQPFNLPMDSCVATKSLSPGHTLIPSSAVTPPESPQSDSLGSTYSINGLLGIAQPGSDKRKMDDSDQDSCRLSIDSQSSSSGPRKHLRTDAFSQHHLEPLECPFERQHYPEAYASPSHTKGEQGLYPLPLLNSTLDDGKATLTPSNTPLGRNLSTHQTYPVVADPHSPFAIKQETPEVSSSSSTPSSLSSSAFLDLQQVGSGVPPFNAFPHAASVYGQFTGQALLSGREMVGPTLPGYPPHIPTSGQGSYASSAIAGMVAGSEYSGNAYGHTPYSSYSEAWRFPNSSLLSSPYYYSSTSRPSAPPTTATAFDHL

Chain of Genome polyprotein (P29990 2492-3391 limits assumed): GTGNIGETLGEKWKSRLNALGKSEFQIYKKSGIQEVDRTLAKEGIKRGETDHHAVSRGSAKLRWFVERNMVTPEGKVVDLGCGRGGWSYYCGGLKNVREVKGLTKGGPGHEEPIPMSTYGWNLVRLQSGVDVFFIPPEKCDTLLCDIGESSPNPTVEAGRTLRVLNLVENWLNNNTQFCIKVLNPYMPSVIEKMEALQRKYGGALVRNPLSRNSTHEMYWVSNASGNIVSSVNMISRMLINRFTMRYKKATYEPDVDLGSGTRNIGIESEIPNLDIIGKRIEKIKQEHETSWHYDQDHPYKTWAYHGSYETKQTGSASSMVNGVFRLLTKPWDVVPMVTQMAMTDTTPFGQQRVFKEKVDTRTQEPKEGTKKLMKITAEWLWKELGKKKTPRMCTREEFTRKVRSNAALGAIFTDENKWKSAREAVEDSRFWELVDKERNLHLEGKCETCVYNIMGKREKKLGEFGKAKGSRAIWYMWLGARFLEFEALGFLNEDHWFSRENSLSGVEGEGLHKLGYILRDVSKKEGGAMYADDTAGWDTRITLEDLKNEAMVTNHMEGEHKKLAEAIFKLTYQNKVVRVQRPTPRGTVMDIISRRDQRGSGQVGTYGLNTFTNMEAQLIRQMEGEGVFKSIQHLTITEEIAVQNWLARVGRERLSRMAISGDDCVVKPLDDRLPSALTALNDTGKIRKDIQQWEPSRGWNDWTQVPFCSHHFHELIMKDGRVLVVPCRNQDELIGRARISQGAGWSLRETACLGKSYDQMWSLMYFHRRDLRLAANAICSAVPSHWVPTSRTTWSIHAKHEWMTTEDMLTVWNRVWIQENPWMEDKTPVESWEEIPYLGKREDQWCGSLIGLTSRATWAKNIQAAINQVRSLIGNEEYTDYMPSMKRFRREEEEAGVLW
Chain of Phospholipase A2 (P04054 whole entry): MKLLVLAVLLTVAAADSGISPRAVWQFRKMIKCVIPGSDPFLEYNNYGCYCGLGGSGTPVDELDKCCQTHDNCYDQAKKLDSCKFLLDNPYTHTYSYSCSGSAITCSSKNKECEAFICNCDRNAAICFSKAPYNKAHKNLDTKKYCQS

CC(C)(C)NC(=O)c1cccc(NC(=O)c2ccc3c(c2)C(=O)N(C(C)(C)C)C3=O)c1
CC50 [1]: > 50 µM (active) | AC50 [2]: 37.3 µM (active) | IC50 (cells): 39.8 µM (active)

O=C1NC(=O)N(c2ccc(Cl)cc2)C(=O)/C1=C/NCCN1CCCCC1
EC50 [3]: > 300 µM (not active) | EC50 [4]: > 300 µM (not active)

Cc1c(Cl)cccc1N=C(S)N1CCN(C(=O)C2CCCO2)CC1 (stereo not drawn)
EC50 [3]: > 300 µM (not active) | EC50 [4]: > 300 µM (not active)

O=C(Nc1ccc(Cl)cc1C(=O)O)c1ccc2c(c1)C(=O)N(Cc1ccco1)C2=O
IC50 (Aminopeptidase N): 137 µM (active) | IC50 (Genome polyprotein): 46.3 µM (active)

O=C(c1ccc(Br)o1)N1CCN=C1SCc1cccc(F)c1
EC50 [3]: > 300 µM (not active) | EC50 [4]: > 300 µM (not active)

N#Cc1cccc(-c2ccc3c(c2)[C@H]2[C@H](CCN2Cc2ccncc2)[C@@H](CO)N3)c1
AC50 [5]: 1.57 µM (active) | AC50 [6]: > 100 µM (inactive) | AC50 [7]: 1.99 µM (active) | AC50 [8]: 1.4 µM (active) | AC50 [9]: 3.28 µM (active)

C[C@@H]1CN([C@@H](C)CO)S(=O)(=O)c2ccc(C#CC3CC3)cc2O[C@@H]1CN(C)C(=O)c1cccc(F)c1
AC50 [10]: 8.3 µM (active)

O=C(O)CSc1nc(-c2ccc(Cl)cc2)nc2c1oc1ccccc12
EC50 [11]: 6.56 µM (active) | IC50 (Leucine aminopeptidase): 34.6 µM (active) | IC50 (Aminopeptidase N): 82.7 µM (active) | EC50 [12]: 1.93 µM (active) | IC50 (Genome polyprotein): 40.6 µM (active)

CCCNC(=O)C[C@@H]1CC[C@@H]2[C@H](COc3ccc(NS(=O)(=O)c4ccccc4C)cc3C(=O)N2C)O1
AC50 [10]: 56 µM (active)

COc1ccc(/C=C/C(=O)NCc2nc3ccccc3[nH]2)cc1OC
IC50 (cells): 30.6 µM (active)

CCOc1ccc(NCc2ccccc2OCc2cccc(F)c2)cc1
EC50 [13]: 1.29 µM (active) | EC50 [14]: > 60 µM (not active) | IC50 (Cysteine protease ATG4B): 8.88 µM (active) | IC50 (Phospholipase A2): 5.3 µM (active)

C[C@H](CO)N1C[C@H](C)[C@@H](CN(C)C(=O)C2CCOCC2)Oc2cc(C#Cc3ccncc3)ccc2S1(=O)=O
AC50 [10]: 3.77 µM (active)

Cc1nc2ccccc2c(=O)n1NC(=O)c1ccco1
IC50 (Aminopeptidase N): 70.7 µM (active)

Fc1cccc(-c2ccc([C@@H]3[C@@H]4CN(Cc5cncnc5)C[C@H]3N4)cc2)c1
AC50 [5]: 4.51 µM (active) | AC50 [6]: 18.8 µM (active) | AC50 [7]: 1.36 µM (active) | AC50 [8]: 1.6 µM (active) | AC50 [9]: 2.67 µM (active)

N#CCSc1nc2ccccc2c2nc3ccccc3n12
CC50 [1]: 7.62 µM (active) | AC50 [15]: 3.31 µM (active) | AC50 (INS1): 8.38 µM (active) | IC50 (cells): 9.82 µM (active)

C[C@H]1CN([C@@H](C)CO)C(=O)c2c(c3ccccc3n2C)-c2ccccc2CO[C@@H]1CN(C)Cc1ccc(-c2ccccc2)cc1
AC50 (Paired box protein Pax-8): 24.9 µM (active) | AC50 [5]: 2.75 µM (active) | AC50 [6]: 22.2 µM (active) | AC50 [7]: 2.75 µM (active) | AC50 [8]: 1.49 µM (active) | AC50 [9]: 1.99 µM (active)

C[C@H](CO)N1C[C@H](C)[C@H](CN(C)CC2CC2)Oc2ccc(NC(=O)Nc3cccc4ccccc34)cc2CC1=O
AC50 [5]: 2.51 µM (active) | AC50 [6]: 48.5 µM (active) | AC50 [7]: 2.51 µM (active) | AC50 [8]: 1.25 µM (active) | AC50 [9]: 2.47 µM (active)

O=C(COc1ccccc1/C=C1\SC(=O)NC1=O)Nc1ccc(F)cc1
IC50 (Aminopeptidase N): 27.5 µM (active)

O=C1CCCC2=C1C(c1ccccc1)C1C(=O)c3ccccc3C1=N2 (stereo not drawn)
CC50 [1]: > 50 µM (active) | IC50 (cells): 39.8 µM (active)
